Measurements from patent US20090215893A1, “Parakeratosis inhibitor, pore-shrinking agent,or rough skin preventing/ameliorating agent, and external composition for skin” (Shiseido Company Ltd, priority 2005, published 2009).

Columns and labels:
[1] = test system: back of a hairless mouse (HR-1), 10 mass % oleic acid applied; test: Parakeratosis-inhibiting effect tests: oleic acid applied to hairless mouse back, macroscopic rough skin evaluation and parakeratosis value; type: in vivo; conditions: for Macroscopic evaluation (average of four animals): 100 μL after oleic acid, three days, rough skin score 0.0 (no redness) to 2.0 (control); for Parakeratosis value (average of four animals): tape-stripped stratum corneum, hematoxylin, range 1.0 to 3.0, higher = parakeratosis advanced, control 2.0; for parakeratosis value / parakeratosis-inhibiting effect / rough skin preventing effect, based on stratum corneum peeling and redness: summary of Table 1, concentrations as in Table 1
Procedure: Aqueous solutions (containing 30 mass % of ethanol) of primarily 3 mass % of an α-amino acid derivative or salt thereof were prepared as the evaluation sample. The pH was regulated by hydrochloric acid or sodium hydroxide so as to be 7.0 to 7.5. When sample solubility was low, the solution was prepared accordingly.
100 μL of 10 mass % oleic acid solution (solvent: ethanol) were applied to the back of a hairless mouse (HR-1; Hoshino Laboratory Animals). Then the sample solution (α-amino acid derivative, and the like) was applied 100 μL at a time. This procedure was continued for three days. […] The status of the skin was evaluated in 0.25-point intervals, with skin where the control (control aqueous solution) had been applied being 2.0 and skin where there was no redness being 0.0. At the same time, the stratum corneum at the back of the hairless mouse was peeled off with tape, the nuclei were stained by hematoxylin, and the degree of parakeratosis was observed and evaluated by a parakeratosis value within a range of 1.0 to 3.0 (in 0.25 increments).

[2] = test system: pores of the cheeks of healthy human males; test: Human pore-shrinking effect (replica assessment of cheek pores); type: in vivo; conditions: for Replica assessment (average of n = 5): twice a day for one month, pore size rating 1-13, after application minus before application, control 0.3; for pore-shrinking effect: summary of Table 2, concentrations as in Table 2
Procedure: An experiment was conducted whereby a sample was applied twice a day for one month to the cheeks of healthy human males in groups of 5 men each. Aqueous solutions (containing 15 mass % of ethanol) of 3 mass % of the α-amino acid derivative or a salt thereof were prepared as the evaluation sample. The pH was regulated by hydrochloric acid or sodium hydroxide so as to be 7.0 to 7.5. When sample solubility was low, the solution was prepared accordingly. The control was an aqueous 15% ethanol solution. The sample aqueous solution and control aqueous solution were applied to one half of the face at a time.
A replica was collected before and after continuous application, and changes in the shape of the pores at the same site were observed using a three-dimensional laser scanning microscope. The size of the pores was macroscopically evaluated in 13 steps of 1 through 13 (with the pores becoming larger as the numbers became larger), the difference in the ratings before and after application (after application-before application) was calculated, and the efficacy of each sample was studied using this difference as the replica assessment.

[3] = test system: cheek of a panel of 20 women; test: Sensory irritation tests; type: in vivo, human; conditions: for Evaluation (sensory irritation, class of average rating): 1 mL on cheek, evaluated for ten minutes, 20 women; for sensory irritation: summary of Table 4, β-alanine at 3%
Procedure: 1 mL of a control aqueous solution and the sample aqueous solution prepared in Example 1 were applied using a cotton swab to the left or right cheek, respectively, of a panel of 20 women, the irritating sensation was evaluated every 30 seconds for ten minutes beginning immediately after application, and a final evaluation was reported. The evaluation of the irritating sensation was based on the following four steps of rating criteria, the average rating was calculated, and the average was classified by the following criteria.
3: Discontinued because of extremely strong irritation, such as stinging sensation, burning sensation, tickling sensation, itching, and the like.
2: Intolerable strong irritation, such as stinging sensation, burning sensation, tickling sensation, itching, and the like.
1: Tolerable with only slight stinging sensation, burning sensation, tickling sensation, itching, and the like.
0: Not particularly irritating.
A: average rating of less than 0.2
B: average rating of 0.2 to less than 1.0
C: average rating of 1.0 to less than 2.0
D: average rating of 2.0 or greater

[4] = test system: back of hairless mice (HR-1), 10 mass % oleic acid applied; test: Inhibiting effect against rough skin induced by oleic acid application (transepidermal water loss); type: in vivo; set-up: ΔTEWL value: unit not given here; conditions: for ΔTEWL value: three days, average of four animals, rough skin worse as value increases, control 12.0; for ΔTEWL value compared with the control aqueous solution / rough skin preventing/ameliorating effect: summary of Table 3, concentrations as in Table 3
Procedure: In order to investigate the inhibiting effect of α-amino acid derivatives and salts thereof against rough skin induced by oleic acid application, the transepidermal water loss (TEWL value) before and after application was measured, the difference was compared with the control (control aqueous solution), and the effect was determined. Sample preparation and the application method were in accordance with Example 1. The TEWL was determined using the TM210 TEWA Meter (Courage+Khazaka Electronic GmBH).
100 μL of 10 mass % oleic acid (solvent: ethanol) was applied to the back of hairless mice (HR-1, four mice per group). Then a sample solution (α-amino acid derivatives, and the like) was applied 100 μL at a time. This procedure was continued for three days. The following day, the TEWL value of the back was determined and the values of the four animals were averaged. Rough skin became worse as the ΔTEWL value increased.

Compound	Macroscopic evaluation (average of four animals) ([1]; sample 3 mass %)	Parakeratosis value (average of four animals) ([1]; sample 3 mass %)	parakeratosis value / parakeratosis-inhibiting effect [1]	rough skin preventing effect, based on stratum corneum peeling and redness [1]	Replica assessment (average of n = 5) ([2]; sample 3 mass %)	pore-shrinking effect [2]	Evaluation (sensory irritation, class of average rating) ([3]; sample 3 mass %)	sensory irritation [3]	ΔTEWL value ([4]; sample 3 mass %)	ΔTEWL value compared with the control aqueous solution / rough skin preventing/ameliorating effect [4]	Macroscopic evaluation (average of four animals) ([1]; sample 1.5 mass %)	Parakeratosis value (average of four animals) ([1]; sample 1.5 mass %)	Replica assessment (average of n = 5) ([2]; sample 1.5 mass %)	Evaluation (sensory irritation, class of average rating) ([3]; sample 1.5 mass %)	ΔTEWL value ([4]; sample 1.5 mass %)	Macroscopic evaluation (average of four animals) ([1]; sample 1 mass %)	Parakeratosis value (average of four animals) ([1]; sample 1 mass %)	ΔTEWL value ([4]; sample 1 mass %)
C[C@H](NC1CCCCC1)C(=O)O [N-cyclohexyl-L-alanine]	1.4	1.3	reduced	seen	−1.2	seen	A (average rating of less than 0.2)	no problems	7.1	significantly lower								
O=C(O)[C@@H](CO)NS(=O)(=O)c1ccccc1 [N-benzenesulfonyl-D-serine]	1.3	1.2	reduced	seen	−1.1	seen	A (average rating of less than 0.2)	no problems	6.7	significantly lower								
CC(NC1CCCCC1)C(=O)O (racemic) [N-cyclohexyl-DL-alanine]	1.3	1.4	reduced	seen	−1.4	seen	A (average rating of less than 0.2)	no problems	6.5	significantly lower								
CN[C@H](CO)C(=O)O [N-methyl-D-serine]	1.4	1.5	reduced	seen	−1.5	seen	A (average rating of less than 0.2)	no problems	8.0	significantly lower								
C[C@H](NS(=O)(=O)c1ccccc1)C(=O)O [N-benzenesulfonyl-L-alanine]			reduced	seen		seen		no problems		significantly lower	1.2	1.3	−0.9	A (average rating of less than 0.2)	7.2			
O=C(O)[C@H](CO)NS(=O)(=O)c1ccccc1 [N-benzenesulfonyl-L-serine]	1.2	1.2	reduced	seen	−1.2	seen	A (average rating of less than 0.2)	no problems	6.8	significantly lower								
O=C(O)C(CO)NS(=O)(=O)c1ccccc1 (racemic) [N-benzenesulfonyl-DL-serine]	1.2	1.2	reduced	seen	−1.3	seen	A (average rating of less than 0.2)	no problems	6.9	significantly lower								
O=C(N[C@H](CO)C(=O)O)OCc1ccccc1 [N-carbobenzoyloxy-D-serine]	1.2	1.2	reduced	seen	−1.3	seen	A (average rating of less than 0.2)	no problems	6.8	significantly lower								
O=C(O)C(CO)NC1CCCCC1 (racemic) [N-cyclohexyl-DL-serine]	1.2	1.2	reduced	seen	−1.4	seen	A (average rating of less than 0.2)	no problems	6.7	significantly lower								
O=C(O)CNC(=O)c1ccccc1 [Hippuric acid, reference compound]			not seen							not obtained						1.9	2.0	10.5
CC(=O)NCC(=O)O [N-acetyl-glycine, reference compound]	1.9	2.0	not seen						14.7	not obtained								
O=C(O)CNCP(=O)(O)O [Phosphonomethyl-glycine, reference compound]			not seen							not obtained						1.9	2.1	11.4
NCCC(=O)O [β-alanine, reference compound]							D (average rating of 2.0 or greater)	strong sensory irritation										
